The term IC50 denotes the midpoint of a concentration-inhibition curve.

The target of this assay is T1, Recombinant (1-346) HPK1 (h) (Homo sapiens, UniProt Q92918).
T1 construct: Recombinant (1-346) HPK1 (h) is incubated with 8 mM MOPS pH 7.0
T1 sequence (Q92918 1-346): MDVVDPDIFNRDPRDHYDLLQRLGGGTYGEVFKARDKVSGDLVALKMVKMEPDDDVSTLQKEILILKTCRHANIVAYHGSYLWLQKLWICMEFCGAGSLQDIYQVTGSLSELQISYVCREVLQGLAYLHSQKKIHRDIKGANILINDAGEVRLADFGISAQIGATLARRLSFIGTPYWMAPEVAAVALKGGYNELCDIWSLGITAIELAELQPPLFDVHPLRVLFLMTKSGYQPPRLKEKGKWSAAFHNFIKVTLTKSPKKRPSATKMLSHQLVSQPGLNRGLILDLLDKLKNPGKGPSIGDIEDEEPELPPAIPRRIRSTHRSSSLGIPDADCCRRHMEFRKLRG
Briefly: HPK1 human STE kinase enzymatic radiometric assay. Conditions: read-out: HPK1 IC50 nM Range. It is filed as biochemical. The gist of the method:
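Compounds in 3-fold, 9-point serial dilution; kinase (residues 1-346) phosphorylates myelin basic protein (0.33 mg/mL) using [gamma-33P]-ATP at pH 7.0 (MOPS, EDTA, Mg acetate) for 40 min, room temperature. Acid-quenched mixture filtered onto P30 mats; incorporated radioactivity read by scintillation counting.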

Regarding `CN(C)[C@@H]1COc2ccc(-c3nc(-c4cc(F)c5c(=O)[nH]cc(F)c5c4)c(N)nc3F)cc21` [Example I-253, (S)-6-(3-amino-6-(3-(dimethylamino)-2,3-dihydrobenzofuran-5-yl)-5-fluoropyrazin-2-yl)-4,8-difluoroisoquinolin-1(2H)-one], the IC50 lay in the range of 0.1 to 10 nM. `COC1CCN(Cc2cc(-c3nc(-c4cc5c(cc4F)C(=O)NCC5)c(N)nc3F)ccc2C2CCOCC2)CC1` [Example I-132, 6-(3-amino-5-fluoro-6-(3-((4-methoxypiperidin-1-yl)methyl)-4-(tetrahydro-2H-pyran-4-yl)phenyl)pyrazin-2-yl)-7-fluoro-3,4-dihydroisoquinolin-1(2H)-one]: the IC50 fell in the range of 11 to 100 nM. Regarding `Nc1nc(F)c(-c2ccc(N3CCN(CC4CC4)CC3)cc2)nc1-c1ccc2c(=O)[nH]cc(F)c2c1` [Example I-84, 6-(3-amino-6-(4-(4-(cyclopropylmethyl)piperazin-1-yl)phenyl)-5-fluoropyrazin-2-yl)-4-fluoroisoquinolin-1(2H)-one], the IC50 fell in the range of 0.1 to 10 nM. For the molecule `Cc1cc2cc(-c3nc(-c4ccc(C5CCOCC5)c(CN(C)C)c4)c(F)nc3N)c(F)cc2c(=O)[nH]1` [Example I-184, 6-(3-amino-6-(3-((dimethylamino)methyl)-4-(tetrahydro-2H-pyran-4-yl)phenyl)-5-fluoropyrazin-2-yl)-7-fluoro-3-methylisoquinolin-1(2H)-one], the IC50 is 0.1 to 10 nM. For the molecule `CN(C)Cc1c(N2CCOCC2)ccc(-c2nc(-c3cc4c(cc3F)C(=O)NCC4)c(N)nc2F)c1F` [Example I-241, 6-(3-amino-6-(3-((dimethylamino)methyl)-2-fluoro-4-morpholinophenyl)-5-fluoropyrazin-2-yl)-7-fluoro-3,4-dihydroisoquinolin-1(2H)-one], the IC50 lay within 11 to 100 nM. Take `Cc1nc2cc(-c3nc(-c4ccc([C@]56C[C@H]5CN(C)C6)cc4)c(F)nc3N)ccc2c(=O)[nH]1` [Example I-74, 7-(3-amino-5-fluoro-6-(4-((1S,5R)-3-methyl-3-azabicyclo[3.1.0]hexan-1-yl)phenyl)pyrazin-2-yl)-2-methylquinazolin-4(3H)-one]: the half-inhibitory concentration (IC50) lay within 11 to 100 nM. On to `CO[C@H]1CCN(Cc2cc(-c3nc(-c4ccc5c(c4)CCNC5=O)c(N)nc3F)ccc2N2CCOCC2)C1` [Example I-156, (S)-6-(3-amino-5-fluoro-6-(3-((3-methoxypyrrolidin-1-yl)methyl)-4-morpholinophenyl)pyrazin-2-yl)-3,4-dihydroisoquinolin-1(2H)-one], for which the half-inhibitory concentration (IC50) lay within 0.1 to 10 nM.

Regarding `COC1CN(Cc2cc(-c3nc(-c4cc(F)c5c(c4)CCNC5=O)c(N)nc3F)ccc2N2CCOCC2)C1` [Example I-192, 6-(3-amino-5-fluoro-6-(3-((3-methoxyazetidin-1-yl)methyl)-4-morpholinophenyl)pyrazin-2-yl)-8-fluoro-3,4-dihydroisoquinolin-1(2H)-one], the IC50 lay in the range of 0.1 to 10 nM.

Consider `COc1ccc(-c2nc(-c3ccc4c(c3)CCNC4=O)c(N)nc2F)cc1C#N` [Example I-292, 5-(5-amino-3-fluoro-6-(1-oxo-1,2,3,4-tetrahydroisoquinolin-6-yl)pyrazin-2-yl)-2-methoxybenzonitrile], for which the IC50 was in the range of 11 to 100 nM.

`CN(C)Cc1cc(-c2nc(-c3cc(F)c4c(c3)CCNC4=O)c(N)nc2F)ccc1F` [Example I-274, 6-(3-amino-6-(3-((dimethylamino)methyl)-4-fluorophenyl)-5-fluoropyrazin-2-yl)-8-fluoro-3,4-dihydroisoquinolin-1(2H)-one]: the 50% inhibitory concentration (IC50) fell in the range of 101 to 1000 nM. Take `CN(C)Cc1cc(-c2nc(-c3ccc4c(=O)[nH]cc(F)c4c3)c(N)nc2F)cc(F)c1N1CCOCC1` [Example I-265, 6-(3-amino-6-(3-((dimethylamino)methyl)-5-fluoro-4-morpholinophenyl)-5-fluoropyrazin-2-yl)-4-fluoroisoquinolin-1(2H)-one]: the IC50 lay in the range of 0.1 to 10 nM. `CC1NC(=O)c2c(F)cc(-c3nc(-c4ccc([C@]56C[C@H]5CN(C)C6)cc4)c(F)nc3N)cc2C1(F)F` (stereo partly drawn) [Example I-135, 6-(3-amino-5-fluoro-6-(4-((1S,5R)-3-methyl-3-azabicyclo[3.1.0]hexan-1-yl)phenyl)pyrazin-2-yl)-4,4,8-trifluoro-3-methyl-3,4-dihydroisoquinolin-1(2H)-one]: the IC50 was in the range of 11 to 100 nM.

In the case of `Nc1nc(F)c(-c2ccc(N3CCOCC3)c(CN3CCCCC3)c2)nc1-c1ccc2c(c1)CCNC2=O` [Example I-185, 6-(3-amino-5-fluoro-6-(4-morpholino-3-(piperidin-1-ylmethyl)phenyl)pyrazin-2-yl)-3,4-dihydroisoquinolin-1(2H)-one], the IC50 lay within 11 to 100 nM. With `Cc1c[nH]c(=O)c2ccc(-c3nc(-c4ccc(O)c(CN(C)C)c4)c(F)nc3N)cc12` [Example I-306, 6-(3-amino-6-(3-((dimethylamino)methyl)-4-hydroxyphenyl)-5-fluoropyrazin-2-yl)-4-methylisoquinolin-1(2H)-one], the IC50 was 11 to 100 nM.

As to `CO[C@H]1CCN(Cc2cc(-c3nc(-c4cc5c(cc4F)C(=O)NCC5)c(N)nc3F)ccc2N2CCOCC2)C1` [Example I-157, (S)-6-(3-amino-5-fluoro-6-(3-((3-methoxypyrrolidin-1-yl)methyl)-4-morpholinophenyl)pyrazin-2-yl)-7-fluoro-3,4-dihydroisoquinolin-1(2H)-one], the IC50 lay in the range of 0.1 to 10 nM.

Turning to `Nc1nc(F)c(-c2ccc(OC3CCOCC3)c(CN3CCC3)c2)nc1-c1cc2c(cc1F)C(=O)NCC2` [Example I-209, 6-(3-amino-6-(3-(azetidin-1-ylmethyl)-4-((tetrahydro-2H-pyran-4-yl)oxy)phenyl)-5-fluoropyrazin-2-yl)-7-fluoro-3,4-dihydroisoquinolin-1(2H)-one], the IC50 is 11 to 100 nM. Turning to `CN(C)Cc1cccc(-c2nc(-c3cc4c(cc3F)C(=O)NCC4)c(N)nc2F)c1` [Example I-278, 6-(3-amino-6-(3-((dimethylamino)methyl)phenyl)-5-fluoropyrazin-2-yl)-7-fluoro-3,4-dihydroisoquinolin-1(2H)-one], the IC50 lay within 11 to 100 nM. As to `COC1CN(Cc2cc(-c3nc(-c4ccc5c(c4)CCNC5=O)c(N)nc3F)ccc2C2CCOCC2)C1` [Example I-193, 6-(3-amino-5-fluoro-6-(3-((3-methoxyazetidin-1-yl)methyl)-4-(tetrahydro-2H-pyran-4-yl)phenyl)pyrazin-2-yl)-3,4-dihydroisoquinolin-1(2H)-one], the IC50 fell in the range of 0.1 to 10 nM.

Consider `CN(C)Cc1cc(-c2nc(-c3cc4c(F)c[nH]c(=O)c4cc3F)c(N)nc2F)ccc1C1CCOCC1` [Example I-143, 6-(3-amino-6-(3-((dimethylamino)methyl)-4-(tetrahydro-2H-pyran-4-yl)phenyl)-5-fluoropyrazin-2-yl)-4,7-difluoroisoquinolin-1(2H)-one], for which the IC50 lay within 0.1 to 10 nM. With `CN(C)Cc1cc(-c2nc(-c3ccc4c(c3)CCNC4=O)c(N)nc2F)ccc1N1CCSCC1` [Example I-128, 6-(3-amino-6-(3-((dimethylamino)methyl)-4-thiomorpholinophenyl)-5-fluoropyrazin-2-yl)-3,4-dihydroisoquinolin-1(2H)-one] the figure was 0.1 to 10 nM. Take `Cc1c[nH]c(=O)c2ccc(-c3nc(-c4ccc5c(c4)[C@H](N(C)C)CO5)c(F)nc3N)cc12` [Example I-284, (S)-6-(3-amino-6-(3-(dimethylamino)-2,3-dihydrobenzofuran-5-yl)-5-fluoropyrazin-2-yl)-4-methylisoquinolin-1(2H)-one]: the IC50 lay within 11 to 100 nM.

`C[C@H]1CCCN1Cc1cc(-c2nc(-c3cc(F)c4c(c3)CCNC4=O)c(N)nc2F)ccc1C1CCOCC1` [Example I-220, (S)-6-(3-amino-5-fluoro-6-(3-((2-methylpyrrolidin-1-yl)methyl)-4-(tetrahydro-2H-pyran-4-yl)phenyl)pyrazin-2-yl)-8-fluoro-3,4-dihydroisoquinolin-1(2H)-one]: the IC50 was 11 to 100 nM. As for `Cc1[nH]c(=O)c2cc(F)c(-c3nc(-c4ccc(N5CCN(C(C)C)CC5)cc4)c(F)nc3N)cc2c1F` [Example I-168, 6-(3-amino-5-fluoro-6-(4-(4-isopropylpiperazin-1-yl)phenyl)pyrazin-2-yl)-4,7-difluoro-3-methylisoquinolin-1(2H)-one], the figure is 0.1 to 10 nM; as for `COCCN(C)Cc1cc(-c2nc(-c3cc(F)c4c(c3)CCNC4=O)c(N)nc2F)ccc1C1CCOCC1` [Example I-176, 6-(3-amino-5-fluoro-6-(3-(((2-methoxyethyl)(methyl)amino)methyl)-4-(tetrahydro-2H-pyran-4-yl)phenyl)pyrazin-2-yl)-8-fluoro-3,4-dihydroisoquinolin-1(2H)-one], 0.1 to 10 nM; as for `CCN(C)Cc1cc(-c2nc(-c3ccc4c(c3)C(F)(F)CNC4=O)c(N)nc2F)ccc1C1=CCOCC1` [Example I-225, 6-(3-amino-6-(4-(3,6-dihydro-2H-pyran-4-yl)-3-((ethyl(methyl)amino)methyl)phenyl)-5-fluoropyrazin-2-yl)-4,4-difluoro-3,4-dihydroisoquinolin-1(2H)-one], 11 to 100 nM.

Consider `COCCN(C)Cc1cc(-c2nc(-c3ccc4c(c3)CCNC4=O)c(N)nc2F)ccc1N1CCOCC1` [Example I-160, 6-(3-amino-5-fluoro-6-(3-(((2-methoxyethyl)(methyl)amino)methyl)-4-morpholinophenyl)pyrazin-2-yl)-3,4-dihydroisoquinolin-1(2H)-one], for which the IC50 was in the range of 0.1 to 10 nM.

For the origin of these results see patent publication US20240425479A1, “HALO-SUBSTITUTED AMINO AZA-HETEROARYL COMPOUNDS AS INHIBITORS OF THE HAEMATOPOIETIC PROGENITOR KINASE 1 (HPK1)” (priority 2021, published 2024).
